One assay has as its system caspase 3. The assay can be described thus: Caspase 3 activity in H929 cells (fluorescent substrate). The assay is classed as cell-based. The note with it: 6 and 24 hrs, relative to treatment with melphalan. On the procedure:
Cells were treated for 6 hours (FIG. 21A) or 24 hours (FIG. 21B) and caspase 3 activity was measured using a fluorescent substrate. Shown is a representative experiment performed in triplicate. The experiment was repeated twice and similar results were obtained.
(§1) Detection of Apoptosis. A flow cytometric assay measuring Annexin V/PI staining was used to measure apoptotic cells following 24 hours of peptide exposure as previously described (Damiano J S et al. Blood, 1999; 93:1658-1667). The assay was performed in triplicate and 3 independent experiments were performed. Caspase 3 and 8 activity was measured at 6 and 24 hrs post peptide treatment per manufactures' instructions (BD Biosciences, San Jose, Calif.). The caspase assays were performed in triplicate and repeated twice.

The next assay concerns caspase 8. The assay is described as follows: Caspase 8 activity in H929 cells (fluorescent substrate). It is filed as cell-based. The note with it: 6 or 24 hrs. As for the experimental part:
Cells were treated for 6 hours (FIG. 22A) or 24 hours (FIG. 22B) and caspase 8 activity was measured using a fluorescent substrate. Shown is a representative experiment performed in triplicates. The experiment was repeated twice and similar results were obtained.
as §1

Another assay deals with H929 cells. The assay can be described thus: Electron microscopy of double membrane vesicles. The note with it: 100 μg/ml, 4 hours. It is filed as cell-based. On the procedure: H929 cells were treated with either 100 µg/ml HYD1 (FIG. 24A) or HYD1S (FIG. 24B) for four hours and processed for electron microscopy as described in materials and methods.
Electron Microscopy. H929 cells were treated for four hours with either 100 μg/ml HYD1 or HYD1S. After peptide treatment, the samples were fixed overnight in 2.5% glutaraldehyde in 0.1M phosphate buffer, pH 7.2 overnight at four degrees. Following fixation, the cells were rinsed 2 times for 10 minutes each in 0.1M phosphate buffer, pH 7.2, at 4° C. The cells were loosely pelleted in microcentrifuge tubes at 500×G for 3 minutes. The buffer was removed from the cells and replaced with 1% osmium tetroxide in the above buffer at 4° C. The cells were resuspended and post-fixed for 1 hour, then loosely pelleted and rinsed in the above buffer. This step was repeated for a total of 3 rinses of 5 minutes each, with the cells being resuspended after each buffer change. Cells were dehydrated through a graded series of acetone, 30%, 50%, 70%, and 95% acetone in water, 5 minutes per change with loose pelleting at 750×G for 5 minutes, then resuspension for each step. The cells were then dehydrated through three changes of 100% acetone, 10 minutes per change, with a 5 minute pelleting step at 1000×G, followed by resuspension in each step. […]

Assay [1] relates to phospho Pyk2 in H929 cells. The assay is described as follows: Phospho-Pyk2 levels in suspension culture (immunoblot). The assay is classed as cell-based. The note with it: H929 cells cultured in suspension. An excerpt: Based upon the observation that HYD1 increased melphalan induced apoptosis in suspension cultures, whether treatment with HYD1 inhibits phosphorylation of a downstream mediator of β1 integrin signaling (Pyk2) in suspension cultures was investigated.

In assay [2] the test system is phospho-Pyk2 in 8226 cells. The assay can be described thus: Phospho-Pyk2 levels (immunoblot). It is filed as cell-based. In general terms: Immunoblotting shows a protein as a band on a membrane.
For the next assay, the target named is T1, β1 integrin (Homo sapiens, UniProt P05556).
T1 construct: endogenous in cells
T1 sequence (P05556 21-798): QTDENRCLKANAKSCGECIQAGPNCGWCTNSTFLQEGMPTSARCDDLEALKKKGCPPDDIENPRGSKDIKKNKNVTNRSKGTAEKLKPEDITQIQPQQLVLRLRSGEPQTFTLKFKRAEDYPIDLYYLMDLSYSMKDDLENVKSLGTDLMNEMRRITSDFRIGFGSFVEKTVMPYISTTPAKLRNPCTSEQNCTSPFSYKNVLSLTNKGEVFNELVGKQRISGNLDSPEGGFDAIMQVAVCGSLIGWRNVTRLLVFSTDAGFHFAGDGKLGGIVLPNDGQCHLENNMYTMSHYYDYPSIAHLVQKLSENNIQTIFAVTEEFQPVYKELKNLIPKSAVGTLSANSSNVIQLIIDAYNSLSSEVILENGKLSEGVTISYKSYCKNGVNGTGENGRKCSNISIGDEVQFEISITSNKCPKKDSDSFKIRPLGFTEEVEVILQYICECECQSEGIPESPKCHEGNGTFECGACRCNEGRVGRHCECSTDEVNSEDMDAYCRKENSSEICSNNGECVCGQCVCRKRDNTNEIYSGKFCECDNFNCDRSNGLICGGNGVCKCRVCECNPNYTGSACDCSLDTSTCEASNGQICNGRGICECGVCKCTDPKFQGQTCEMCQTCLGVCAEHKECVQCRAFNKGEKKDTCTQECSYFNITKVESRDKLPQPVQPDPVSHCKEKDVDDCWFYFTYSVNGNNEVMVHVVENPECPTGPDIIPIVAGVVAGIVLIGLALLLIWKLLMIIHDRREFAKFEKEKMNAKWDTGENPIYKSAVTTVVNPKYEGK
The assay is described as follows: Binding of peptide to the cell surface. An excerpt:
Another aspect of the invention concerns a method of identifying modulators of peptide binding (a screen for molecules that displace peptide binding). Agents that are identified as being capable of competing with the HYD1 peptides of the invention for binding to β1 integrin may have utility as cytotoxic agents for research or therapy (e.g., for cancer treatment). The method comprising providing a candidate agent (such as a chemical compound, antibody, nucleic acid, or peptide); and determining whether the agent inhibits (e.g., disrupts, prevents, or interferes with), the ability of a HYD1 peptide of the invention (HYD1 or a fragment or variant thereof) to bind to β1 integrin on a cell surface (e.g., cancer cell surface) and/or inhibit β1 integrin mediated adhesion, in vitro or in vivo (e.g., in an animal model). Preferably, the cell is a cancer cell such as a myeloma cell or a cell of other cancer types (see, for example Table 1). Preferably, the peptide is labeled with a detectable moiety (e.g., a fluorescent tag, such as […]) to facilitate the determining step. Examples of controls that may be utilized in carrying out the screening method include, but are not limited to, unlabeled HYD1 peptides (HYD1, or a fragment or variant thereof); scrambled peptides (such as HYD1S); β1 integrin blocking antibody; and non-specific surface antigen binding antibody (such as CD138 for myeloma cells). Advantageously, using the screening assay, labeled HYD1 or fragments or variants thereof, can be used to screen candidates such as small molecules, on natural product libraries, in a rapid, high-throughput fashion. […] Fluorescence polarization (FP) analysis can be used to screen small molecule or natural product libraries for discovery of novel compounds that mimic the specific binding and potentially the biological activity of HYD1. The FP assay is based on the extent of depolarization of the free versus bond peptide, which can be accurately measured on commercially available FP plate readers. […] In summary, a high throughput screen (HTS) can be used to bind small molecules prior to the addition of an HYD1 probe and molecules of interest can be identified by displacement of bond peptide, with a corresponding increase in unbound peptide by FP analysis. An analogous high-throughput binding assay based on fluorescence polarization, which allows screening for small molecules that bind to the STAT3 SH2 domain, is described in Schust J. and Berg T., Anal Biochem., 2004 Jul. 1; 330(1):114-8. […]

In assay [3] the test system is DUH-H prostate carcinoma cells. The note with it: DeRoock et al. 2001; cited from earlier work.

Where no end group is shown, it is not given here. [ ]: non-standard residue; d: D form.

For “kikmviswkg ([dK][dI][dK][dM][dV][dI][dS][dW][dK]G) [HYD1]”, in the assay on caspase 3, the “caspase 3 activity” value was “minimal caspase 3 activity”. In addition, in the assay on caspase 8, the “caspase 8 activity” value was “no caspase 8 activity was detected”. The “formation of double membranes / vesicles (EM)” value in the assay on H929 cells is “increased formation of double membranes”. For the same substance, in assay [1], the “phospho Pyk2 levels” value was “reduces phospho Pyk2 levels”. Besides, in assay [2], the phospho-Pyk2 levels entry is given as “decreased levels of phospho-Pyk2”. Also, in the assay with β1 integrin, the “binding to the cell surface” value is on record as “bind to the cell surface” and the “blocking of cell surface binding by β1 integrin antibody” value is given as “is blocked”. The “inhibition of adhesion to FN, laminin 1, laminin 5 and collagen V” value in assay [3] is “inhibit adhesion”.

These data come from patent US7632814B2, “HYD1 peptides as anti-cancer agents” (University of South Florida, priority 2006, dated 2009).
